Molecules are shown by their SMILES.

Data on five compounds can be found in US8518989B2, “Prodrugs of short-chain fatty acids and treatment methods” (Georgia Health Sciences University Research Institute, Inc., priority 2005, dated 2013).

In test [1] the test system is all three isoforms of NOS. The note with it: read-out: Km for arginine; cited from earlier work.
In the next test the test system is HDAC. In words: HDAC activity in a cell-free system with MCF7 cell lysate. Type of test: biochemical, human. On the procedure:
Measurement of HDAC activity in a cell-free system: This was done using a commercially available assay kit (BioVision). MCF7 cell lysate was used as a source of HDAC activity. 50 μg of lysate protein was incubated with various monocarboxylates (1 mM), or trichostatin A (20 μM), and the reaction was initiated by the addition of HDAC substrate. The reaction was then terminated and the deacetylated product was measured according to the manufacturer's instructions. The activity is expressed in nmoles of deacetylated product formed per μg of MCF7 cell lysate protein per 30 min.

The test system of test [2] is MCF7 cells transfected with SMCT1 cDNA. In words: Colony formation assay in MCF7 cells transfected with SMCT1 cDNA. The note with it: SMCT1-expressing MCF7 cells. Type of test: cell-based, human.
Another test concerns MCF7, T47D, and ZR75.1. In words: Apoptosis in breast tumor cell lines (FACS, sub-G1). Type of test: cell-based, human. On the procedure:
(§1) Cell cycle analysis: Cells were fixed in 50% ethanol, treated with 0.1% sodium citrate, 1 mg/ml RNase A, and 50 μg/ml propidium iodide, and subjected to FACS (Becton Dickinson FacsCaliber) analysis. Cells with DNA content below Cl were scored as apoptotic population.

Test [3] deals with SMCT1 and C/EBPδ expression. The test can be described thus: Induction of SMCT1 and C/EBPδ expression in MCF7 cells (RT-PCR). Type of test: cell-based, human. The note with it: NaB 5 mM, TSA 1 μM, MAA 5 mM, VPA 2 mM, 18 or 24 h. On the procedure:
RT-PCR: Two μg of RNA was reverse transcribed using the Gene Amp PCR system (Roche) according to the manufacturer's instructions. Amplification of cDNA corresponding to mouse [NT] (sense) (SEQ ID NO:9), [NT] (anti-sense) (SEQ ID NO: 10)], mouse [NT] (sense) (SEQ ID NO:11), [NT] (anti-sense) (SEQ ID NO:12)], human [NT] (sense) (SEQ ID NO:13), [NT] (anti-sense) (SEQ ID NO:14)], and human C/EBPδ [[NT] (sense) (SEQ ID NO:15), [NT] (anti-sense) (SEQ ID NO:16)] was carried out using HPRT1 (hypoxanthine guanine phosphoribosyl transferase 1) as an internal control.

A further test concerns HMEC, HBL100, and MCF10A. In words: Apoptosis in non-transformed mammary epithelial cell lines (FACS, sub-G1). In kind it is cell-based, human. The note with it: normal mammary epithelial cells expressing SMCT1. Here is the method: as §1

Consider `N=C(N)NCCC[C@H](N)C(=O)O` [arginine], for which the Km in test [1] is 3 to 30 µM.
For `CC(O)C(=O)O` (stereo not shown) [lactate], in the test with HDAC, the “HDAC inhibition (in words)” value is “does not”. For the same compound, the “Effect on cell growth / apoptosis” value in test [2] is recorded as “no effect on cell growth”.
`COCC(=O)O` [methoxyacetate, methoxyacetic acid]: the Induction of apoptosis entry in the test on MCF7, T47D, and ZR75.1 is listed as “do not have any effect on apoptosis”. Further, in test [3], the “Induction of SMCT1 and C/EBPδ expression” value is “no or little activity”.
In the case of `CC(/C=C/C(=O)NO)=C\[C@@H](C)C(=O)c1ccc(N(C)C)cc1` [trichostatin A], the Induction of apoptosis result with HMEC, HBL100, and MCF10A is given as “does not induce apoptosis”; in the test with MCF7, T47D, and ZR75.1, “cause apoptosis specifically in tumor cell lines”. For the same compound, the “Induction of SMCT1 and C/EBPδ expression” value in test [3] was “induce the expression of both genes”.
As to `CCCC(CCC)C(=O)O` [valproate, valproic acid], the Induction of apoptosis result in the test on MCF7, T47D, and ZR75.1 is reported as “do not have any effect on apoptosis”. For the same compound, the “Induction of SMCT1 and C/EBPδ expression” value in test [3] was “no or little activity”.
